Laboratory results from US10335372B2, “Compositions with modified nucleases targeted to viral nucleic acids and methods of use for prevention and treatment of viral diseases” (priority 2004, dated 2019).
Several values for one entry are separate records, joined by “and”; a condition that tells them apart may be missing. Equal values may be shown once. Read-outs that look alike come from different tables or passages of the source.

Experiments:
[1] = system: ssRNA corona virus; test: Antiviral activity of labeled RNase I variants against ssRNA corona virus; format: cell-based
[2] = Cellular uptake of fluorescamine-labeled RNase I variants; format: cell-based; details: fluorescamine label
[3] = system: dsRNA reovirus; test: Combination of human RNase I and human RNase III against reovirus in HEP-2 cells; format: cell-based; details: 200 UA/ml
Description: The reovirus stock preparation used in this example has a titer of 5.5 log CPD50/0.1 ml.

[4] = system: FMDV of O-type; details: guinea pig, in vivo
[5] = system: Influenza virus A/Aichi/2/68/H3N2; format: in vivo; details: mice, single values
[6] = system: double-stranded RNA; details: physiological salt conditions; double-stranded RNA substrate; cited from earlier work
[7] = system: West Nile virus; test: Antiviral effect of modified RNase I against West Nile virus in newborn rabbit kidney cells; details: average of four replicate determinations
[8] = system: FMD virus; format: cell-based

| Substance | Average Titer [1] | Cellular Uptake [OD430 nm] [2] | Average Titer [3] [logTCD50/0.1 ml] | Titer ([3]; single values) | Survived [4] | duration of preventive effect after a single injection [4] | animals that developed FMD ([4]; sc) | Survived ([4]; record 2) | Titer in lungs ([5]; treatment i.n.) | Titer in lungs ([5]; treatment i.p.) | enzymatic activity relative to RNase A [6] | logTCD50/ml ([7]; 100 UA/ml) [logTCD50/ml] | logTCD50/ml ([7]; 250 UA/ml) [logTCD50/ml] | Titer [8] |
| --- | --- | --- | --- | --- | --- | --- | --- | --- | --- | --- | --- | --- | --- | --- |
| *RNase I: fluorescamine-labeled human RNase I | 5.4 | 110 |  |  |  |  |  |  |  |  |  |  |  |  |
| RNase: recombinant / wild-type human RNase I (Examples 22, 30, 31) |  |  | 4.0 | 3.9 logTCD50/0.1 ml and 4.0 logTCD50/0.1 ml and 4.1 logTCD50/0.1 ml | 40 | at least 4 hours | 8 | 32 | 4.5 log TCD50 and 4.0 log TCD50 and 4.3 log TCD50 | 4.7 log TCD50 and 5.0 log TCD50 and 4.5 log TCD50 | about 500 times | 7.7 | 7.0 | 7.3; 7.1; 6.8 logTCD50/ml |
